Laboratory results reported in ChEMBL document CHEMBL3639270, “Therapeutic agents” (2013).

Molecular target: E3 ubiquitin-protein ligase Mdm2 (Homo sapiens, UniProt Q00987)
Experiment: ELISA Assay: Streptavidin-coated 96-well plates are used to immobilise a biotin-tagged IP3 p53-derived peptide ([…]). This is a peptide analogue derived from the p53 binding site for MDM2 ([…]). […] Aliquots of MDM2 generated by in vitro translation are pre-incubated for 20 minutes at room temperature (i.e. 20-25C.) with test compounds and controls, before transfer into the IP3-coated 96-well plates.

E3 ubiquitin-protein ligase Mdm2, sequence (Q00987 whole entry): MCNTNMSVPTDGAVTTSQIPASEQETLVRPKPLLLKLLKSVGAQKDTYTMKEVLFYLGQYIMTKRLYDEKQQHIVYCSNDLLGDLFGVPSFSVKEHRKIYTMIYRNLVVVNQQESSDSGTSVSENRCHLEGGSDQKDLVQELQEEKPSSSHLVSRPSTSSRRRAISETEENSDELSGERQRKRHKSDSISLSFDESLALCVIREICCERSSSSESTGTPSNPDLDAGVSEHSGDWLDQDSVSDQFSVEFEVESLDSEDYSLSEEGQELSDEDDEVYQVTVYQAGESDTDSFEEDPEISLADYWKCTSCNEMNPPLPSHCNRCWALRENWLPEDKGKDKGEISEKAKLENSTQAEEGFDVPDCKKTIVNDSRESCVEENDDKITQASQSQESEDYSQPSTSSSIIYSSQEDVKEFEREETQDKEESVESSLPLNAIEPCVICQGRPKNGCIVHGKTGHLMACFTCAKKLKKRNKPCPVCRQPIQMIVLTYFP

With O=C1c2ccccc2C(O[C@H]2CCC[C@@H](O)CCC2)(c2ccc(Cl)cc2)N1Cc1ccc([N+](=O)[O-])cc1 (stereo partly specified) the IC50 was 375 nM.
